Measured values from patent US4965261A, “Substituted benzoxazinorifamycin derivative and antibacterial agent containing the same” (Kanegafuchi Kagaku Kogyo Kabushiki Kaisha, priority 1988, dated 1990).
Converted amounts (≈) assume the structure as drawn.

What was measured:
[1] = test system: Mycobacterium tuberculosis H37 Rv; assay: Therapeutic effect on mice experimentally infected with tuberculosis (FIG. 1, groups of 20 mice); details: oral, 200 μg/mouse, once a day, six days a week
Text: In FIG. 1, the point, a, means the time that mice were infected, and the point, b, means the time that the treatment started.

[2] = test system: Bacillus subtilis IFO 3134; assay: Antibacterial activity, standard method of Japan Society of Chemotherapy (Table 2); format: cell-based; details: IFO3134, read-out: Minimal inhibitory concentration
Text: (§1) Derivative No. in Table 2 corresponds to derivative No. in Table 1.

[3] = test system: Escherichia coli IFO 12734; assay: as above; format: cell-based; details: IFO12734, read-out: Minimal inhibitory concentration
Text: as §1

[4] = test system: Klebsiella pneumoniae IFO 3512; assay: as above; format: cell-based; details: IFO3512, read-out: Minimal inhibitory concentration
Text: as §1

[5] = test system: Micrococcus luteus IFO 12708; assay: as above; format: cell-based; details: IFO12708, read-out: Minimal inhibitory concentration
Text: as §1

[6] = test system: Mycobacterium smegmatis ATCC 607; assay: as above; format: cell-based; details: Mycolicibacterium smegmatis, ATCC607, read-out: Minimal inhibitory concentration
Text: as §1

[7] = test system: Staphylococcus aureus IFO 12732; assay: as above; format: cell-based; details: IFO12732, read-out: Minimal inhibitory concentration
Text: as §1

[8] = test system: Mycobacterium tuberculosis H37 Rv; assay: Antibacterial activity against a tubercle bacillus, two-fold dilution in Kirchner liquid medium; details: Table 3; Kirchner medium with 10% bovine serum, 37° C., 4 weeks
[9] = Plasma concentration after oral administration to mice, bioassay with Micrococcus luteus IFO 12708; format: in vivo, ddY male mice; details: mouse, 20 mg/kg
Experimental: The derivatives No. 4 and No. 11 shown in Table 1 were orally administered to ddY male mice (7 weeks), respectively, in a dose of 20 mg/kg. The concentration of the test compound in the plasma was measured by a bioassay method employing Micrococcus luteus IFO 12708 as an assay bacterium according to a usual manner. The results are as follows: As for the derivative No. 4, the concentrations in the plasma after 1 hour, 3 hours, 5 hours and 8 hours from the administration were 17.0 μg/ml, 13.3 μg/ml, 14.5 μg/ml, 4.2 μg/ml, respectively. As for the derivative No. 11, the concentrations in the plasma after 1 hour, 3 hours, 5 hours and 8 hours from the administration were 17.3 μg/ml, 16.2 μg/ml, 13.8 μg/ml and 10.1 μg/ml, respectively.

[10] = test system: Mycobacterium tuberculosis H37 Rv; assay: Repeated treatment test of mice infected with tuberculosis, survival on fortieth day (groups of 10 mice); details: oral, 200 μg/mouse

Row | SMILES | therapeutic effect as compared with rifampicin [1] | MIC [2] [µg/mL] | MIC [3] [µg/mL] | MIC [4] [µg/mL] | MIC [5] [µg/mL] | MIC [6] [µg/mL] | MIC [7] [µg/mL] | Minimal inhibitory concentration [8] [µg/mL] | therapeutic effect as compared with rifampicin and derivative A [1] | concentration at 1 h ([9]; 1 hour) [ng/mL] | concentration at 3 h ([9]; 3 hours) [ng/mL] | concentration at 5 h ([9]; 5 hours) [ng/mL] | concentration at 8 h ([9]; 8 hours) [ng/mL] | Survival rate [10] [%] | dead mice [10]
1 | CCc1c(N2CCCC2)ccc2nc3c4c5c6c(C)c(O)c4c(=O)c(c-3oc12)NC(=O)C(C)=CC=CC(C)C(O)C(C)C(O)C(C)C(OC(C)=O)C(C)C(OC)C=COC(C)(O6)C5=O (centres unmarked) [Derivative C] | inferior to rifampicin | – | – | – | – | – | – | – | – | – | – | – | – | – | –
2 | CCOc1c(N2CCN(CC(C)C)CC2)ccc2nc3c4c5c6c(C)c(O)c4c(=O)c(c-3oc12)NC(=O)C(C)=CC=CC(C)C(O)C(C)C(O)C(C)C(OC(C)=O)C(C)C(OC)C=COC(C)(O6)C5=O (centres unmarked) [Derivative No. 8] | – | ≤ 0.02 | > 10 | > 10 | ≤ 0.02 | 0.63 (≈ 0.65 µM) | ≤ 0.02 | 0.07 (≈ 0.0722 µM) | excellent therapeutic effect as compared with rifampicin | – | – | – | – | – | –
3 | COC1C=COC2(C)Oc3c(C)c(O)c4c(=O)c(c5oc6cc(N7CCCCC7)ccc6nc-5c4c3C2=O)NC(=O)C(C)=CC=CC(C)C(O)C(C)C(O)C(C)C(OC(C)=O)C1C (centres unmarked) [Derivative B] | inferior to rifampicin | – | – | – | – | – | – | – | – | – | – | – | – | – | –
4 | CCOc1c(N2CCCC2)ccc2nc3c4c5c6c(C)c(O)c4c(=O)c(c-3oc12)NC(=O)C(C)=CC=CC(C)C(O)C(C)C(O)C(C)C(OC(C)=O)C(C)C(OC)C=COC(C)(O6)C5=O (centres unmarked) [Derivative No. 4] | – | 0.04 (≈ 0.0445 µM) | > 10 | > 10 | 0.04 (≈ 0.0445 µM) | 0.63 (≈ 0.702 µM) | ≤ 0.02 | 0.017 (≈ 0.0189 µM) | – | 17000 | 13300 | 14500 | 4200 | 100 | there was not observed any dead mouse
